Data as given in US20090318561A1 (MUTUAL PHARMACEUTICAL COMPANY, INC., priority 2008, published 2009).
Values joined by “and” are separate entries in the source; they are usually repeats but may differ in a detail not shown here. Identical values can stand only once. Like-named read-outs stand apart in the source and are kept apart here.

What was measured:
[1] = tested on: CYP1A2 mRNA; experiment: Quantitative RT-PCR analysis of CYP1A2 mRNA content in primary human hepatocytes; details: 3-MC 2 μM; for Relative Fold mRNA Content: single sample
[2] = tested on: CYP1A2 mRNA; details: human, 3 days

Percent of Adjusted Positive Control ([2]; 1 nM) [%]	Percent of Adjusted Positive Control ([2]; 10 nM) [%]	Percent of Adjusted Positive Control ([2]; 100 nM) [%]	SMILES	Mean Relative Fold mRNA Content ([1]; lot Hu485)	Percent of Adjusted Positive Control ([1]; lot Hu485) [%]	Relative Fold mRNA Content ([1]; lot Hu485)	Mean Relative Fold mRNA Content ([1]; lot Hu503)	Percent of Positive Control ([1]; lot Hu503) [%]	Relative Fold mRNA Content ([1]; lot Hu503)	Mean Relative Fold mRNA Content ([1]; lot Hu4021)	Percent of Positive Control ([1]; lot Hu4021) [%]	Relative Fold mRNA Content ([1]; lot Hu4021)
–	–	–	Cc1ccc2cc3c(ccc4ccccc43)c3c2c1CC3 [3-MC, 3-methylcholanthrene]	396	100.00	361 and 445 and 380	161	100.00	167 and 137 and 180	71.9	100.00	68.7 and 69.1 and 77.8
1.23	1.18	0.70	CC[C@]1(O)C[C@@H]2CN(CCc3c([nH]c4ccccc34)[C@@](C(=O)OC)(c3cc4c(cc3OC)N(C)[C@H]3[C@@](O)(C(=O)OC)[C@H](OC(C)=O)[C@]5(CC)C=CCN6CC[C@]43[C@@H]65)C2)C1 [vinblastine]	–	–	–	–	–	–	–	–	–
